Key:
[1] = molecular target: T1, human liver GK (GST-hLGK1) (Homo sapiens, UniProt P35557); experiment: Determination of GK activity value (Mant-ATP to Mant-ADP conversion, capillary electrophoresis); assay type: biochemical; details: reaction started with 25 mM D-glucose solution, 37° C., 60 min, concentration at midpoint between maximum activity value and control group activity value
T1 construct: with a BamHI site added to immediately before the initiation codon; made in house; host or cells: Escherichia coli BL21 (Stratagene), plasmid pGEX6P-2/hLGK1
T1 sequence (P35557 1-464 isoform P35557-3): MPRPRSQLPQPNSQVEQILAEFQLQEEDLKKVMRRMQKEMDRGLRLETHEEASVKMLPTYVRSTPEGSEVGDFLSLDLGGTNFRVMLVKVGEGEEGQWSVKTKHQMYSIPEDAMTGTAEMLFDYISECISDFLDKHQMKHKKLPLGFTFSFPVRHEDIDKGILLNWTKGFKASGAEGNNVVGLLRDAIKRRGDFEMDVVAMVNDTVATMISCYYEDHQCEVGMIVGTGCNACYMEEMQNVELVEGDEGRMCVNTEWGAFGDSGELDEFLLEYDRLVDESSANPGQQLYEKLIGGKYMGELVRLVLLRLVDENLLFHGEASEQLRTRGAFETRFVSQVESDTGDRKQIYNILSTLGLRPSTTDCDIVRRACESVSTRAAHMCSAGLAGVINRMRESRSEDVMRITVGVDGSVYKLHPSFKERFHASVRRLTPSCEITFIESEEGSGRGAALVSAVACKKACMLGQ
Description: Plasmid DNA to be used for the expression of a protein (GST-hLGK1) containing GST (Glutathione S-transferase) added to the amino terminal of human liver GK in Escherichia coli was prepared as follows.
First, PCR was performed using human liver cDNA (Marathon Ready cDNA, Clontech Laboratories, Inc.) as a template and two kinds of synthetic DNAs (5′-[…]-3′ (SEQ ID NO: 1) and 5′-[…]-3′ (SEQ ID NO: 2)), and the obtained DNA fragment was closed using a TOPO TA Cloning Kit (Invitrogen Corporation). PCR was performed using the obtained plasmid DNA as a template and a synthetic DNA (5′-[…] CAGAG-3′ (SEQ ID NO: 3)) with a BamHI site added to immediately before the initiation codon, and a synthetic DNA (5′-[…]-3′ (SEQ ID NO: 4)) with an EcoRI site added to immediately after the stop codon. The obtained DNA fragment was subcloned to pGEX6P-2 (Amersham Biosciences K.K.) cleaved with BamHI and EcoRI to give a plasmid (pGEX6P-2/hLGK1) for expression of human liver GK.
BL21 strain (Stratagene) transformed with pGEX6P-2/hLGK1 obtained in (1) was cultured with shaking at 37° C. for 14 hr in a 200 ml Erlenmeyer flask containing 50 ml of 100 μg/ml ampicillin-containing LB medium. The culture medium (25 ml) was diluted with 225 ml of 100 μg/ml ampicillin-containing LB medium, and further cultured with shaking at 37° C. for 1 hr in a 1 L Erlenmeyer flask. After culture, the Erlenmeyer flask was cooled on ice, 125 μL of 100 mM isopropyl-thio-β-D-galactopyranoside (IPTG) was added (final concentration 50 μM), and cultured at 17° C. for 20 hr. The culture medium was centrifuged, and the obtained fungus was disrupted by ultrasonication. The object protein (GST-hLGK1) was purified from the supernatant using Glutathione Sepharose 4B (Amersham Biosciences K.K.).
A solution (5 μL) of test compound in 50% dimethyl sulfoxide was added to each well of 384 well black plate (Nalge Nunc International K.K.). Then, a solution (35 μL) obtained by diluting GST-hLGK1 obtained in (2) with measurement buffer (containing 50 mM HEPES (pH 7.4), 200 mM KCl, 5 mM MgCl2, 2.5 mM DTT and 50 μM 2′-(or-3′)-O—(N-methylanthraniloyl)adenosine 5′-triphosphate (Mant-ATP) (Jena Bioscience GmbH)) to 6 μg/mL was added to each well.
Each well was stood at 37° C. for 10 min, and 25 mM D-glucose solution (10 μL) was added to start the reaction.
Each well after the reaction was stood at 37° C. for 60 min, and the reaction was quenched by adding 25 μL of a quenching solution (containing 200 mM HEPES (pH 7.4), 20 mM MgCl2, 200 mM EDTA, 0.03% Triton-X 100, 0.3% Coating 3 reagent (Caliper Life Sciences, Inc.)).
2′-(or -3′)-O—(N-methylanthraniloyl)adenosine 5′-triphosphate (Mant-ATP, substrate) and Mant-ADP (reaction resultant product) were separated from each well after the reaction by a microchip type capillary electrophoresis apparatus 250 HTS (Caliper Life Sciences, Inc.). The reaction rate [(reaction resultant product peak height)/(reaction resultant product peak height+substrate peak height)×100(%)] was calculated from the ratio of the substrate peak height and reaction resultant product peak height obtained by fluorescence detection (excitation wavelength 355 nm, measurement wavelength 460 nm) and used as the index of GK activity.
3.5 As a control group, the reaction rate was calculated in the same manner as above except that “solution in 50% dimethyl sulfoxide (without test compound)” was used instead of “solution of test compound in 50% dimethyl sulfoxide”.
A concentration dependency curve of the test compound was drawn with the percentage obtained by dividing the reaction rate of the well added with the test compound (test compound addition group) by the reaction rate of the control group was taken as the GK activity value of the test compound, and the concentration of the test compound at the midpoint between the maximum activity value of the test compound addition group and the control group activity value is shown as EC50 value.

| melting point | EC50 [1] | Compound |
| --- | --- | --- |
| 183 to 184 °C | 33 nM | CNC(=O)CC1CN=C(c2cc3cc(Oc4ccc(S(C)(=O)=O)nc4)cc(C)c3[nH]2)S1 (centres unmarked) [Example 73, 2-[2-(7-Methyl-5-{[6-(methylsulfonyl)pyridin-3-yl]oxy}-1H-indol-2-yl)-4,5-dihydro-1,3-thiazol-5-yl]-N-methylacetamide] |
| 152 to 154 °C | 54 nM | Cc1cc(Oc2ccc(S(C)(=O)=O)nc2)cc2cc(C3=NCC(CC(=O)N4CCOCC4)S3)[nH]c12 (centres unmarked) [Example 80, 7-Methyl-5-{[6-(methylsulfonyl)pyridin-3-yl]oxy}-2-[5-(2-morpholin-4-yl-2-oxoethyl)-4,5-dihydro-1,3-thiazol-2-yl]-1H-indole] |
| 157 to 160 °C | 48 nM | Cc1cc(Oc2ccc(S(C)(=O)=O)nc2)cc2cc(C3=NCC(CC(=O)N4CC[S+]([O-])CC4)S3)[nH]c12 (centres unmarked) [Example 81, 7-Methyl-5-{[6-(methylsulfonyl)pyridin-3-yl]oxy}-2-{5-[2-(1-oxidothiomorpholin-4-yl)-2-oxoethyl]-4,5-dihydro-1,3-thiazol-2-yl}-1H-indole] |
| 194 to 196 °C | 18 nM | CCc1cc(Oc2ccc(S(C)(=O)=O)nc2)cc2cc(C3=NCC(CC(=O)N4CC[S+]([O-])CC4)S3)[nH]c12 (centres unmarked) [Example 82, 7-Ethyl-5-{[6-(methylsulfonyl)pyridin-3-yl]oxy}-2-{5-[2-(1-oxidothiomorpholin-4-yl)-2-oxoethyl]-4,5-dihydro-1,3-thiazol-2-yl}-1H-indole] |

Source: patent US8557805B2, “Fused ring compound and use thereof” (Takeda Pharmaceutical Company Limited, priority 2008, dated 2013)
